Where two headings read alike, the source gives them in different places. Ends that are not written are not given here.
What was measured:
[1] = system: CYP3A4; assay: CYP3A4 induction (enzyme activity) in single-donor human hepatocytes; assay type: in vitro ADME; conditions: for Fold Increase (Enzyme Activity) Mean: mean of three lots
[2] = in vitro; conditions: human, plasma, pH 7.4
Method: (§1) The supernatant was removed and incubated at 37 °C for at least 10 min before use. The pH of each matrix was checked and adjusted to pH 7.4 using 10% phosphoric acid or 1 N sodium hydroxide as necessary.
(§2) Test and control article stock solutions were spiked (1.5 µL) into matrix (0.749 mL) to a final assay concentration of 2 µM and mixed. […] These tubes were sealed and incubated at 37 °C with shaking.
(§3) The quenched samples were mixed briefly by vortexing and stored in a −20 °C freezer.
(§4) Sample plates were stored refrigerated until analysis.
(§5) The column was set to a temperature of 55 °C. […] The instrument was equipped with an electrospray ionization source (500 °C) operated in positive-ion mode.
(§6) Peak area ratios for IS-normalized test article and control article counts were used to calculate the percent remaining relative to the time zero (T0) value. As appropriate, results were plotted and further analyzed to calculate half-life (T1/2) values.
(§7) Mean peak ratios were used to calculate the percent remaining relative to the T0 value: % Remaining at Timex = (mean peak area ratio Tx/mean peak ratio T0) × 100.

[3] = Stability in potassium phosphate buffers of pH 1.3, 5.5 and 7.4; assay type: physicochemical; conditions: potassium phosphate buffer; for remaining at 1 h, 2 µM: read-out: % Remaining at 60 min
Method: The stability of HM-10/10 under varying pH conditions was determined by adding the compound to potassium phosphate buffers of pH 1.3 (acidic), 5.5 (slightly acidic), and 7.4 (physiological pH), with 7-Ethoxycoumarin used as a control article. Under acidic and slightly acidic conditions, the half-life of HM-10/10 could not be determined, as the percentage of HM-10/10 was higher at the end of the time course than at the beginning (Table 3, Figure 3). […] Samples were tested at 2 µM.
The instrument was equipped with an electrospray ionization source (600 °C) operated in the positive-ion mode.

[4] = in vitro; conditions: CD-1, mouse, plasma, pH 7.4
Method: as §1, §2, §3, §4, §5, §6, §7

[5] = system: CYP1A2; assay: CYP1A2 induction (mRNA expression) in single-donor human hepatocytes; assay type: in vitro ADME
Method: RNA isolation and quantification: E-Z 96 Total RNA Kit (Omega Bio-tek, Catalog No. R1034-02) was used for RNA isolation and Quant-iT RNA assay kit (ThermoFisher, Catalog No. Q33140) was used for RNA quantification. The plates were removed from a −80 °C freezer and equilibrated to room temperature. RNA was extracted using the manufacturer’s recommended protocol. Eighty-one microliters of 100% ethanol were added into each well containing 150 µL of lysed sample to make a final ethanol concentration at 35%.
cDNA generation: For cDNA generation, a High-Capacity cDNA Reverse Transcription Kit (Applied Biosystems, Catalog No. 4319983) and QuantStudio 3 PCR system (Applied Biosystems) were used. In this step, 2X Reverse Transcription Master Mix was prepared using the contents of the kit. Then, 10 µL of total RNA was added to 10 µL of 2X Reverse Transcription Master Mix in a microplate and the plate was sealed. This plate was then run in a thermocycler to generate cDNA.
Real time PCR: SsoAdvanced Universal SYBR® Green Supermix (BIO-RAD, Catalog No. 172-5270) and the QuantStudio 3 Real-Time PCR system (Applied Biosystems) were used to perform real-time PCR on the generated cDNA. In this step, a PCR mix was prepared using PCR Supermix, SYBR® primers for the targeted genes, and nuclease-free water. Two microliters of ten-fold diluted cDNA samples (5 µL of cDNA into 45 μL of nuclease-free water) were added to 8 µL of PCR Mix in a microplate and sealed. This plate was then run through the Real-Time PCR system to generate the mRNA expression data.
• Human GAPDH • F: […] • R: […] • Human CYP1A2 • Unique Assay ID: qHsaCID0015160 • Chromosome Location: 15:75045562-75047256 • Human CYP2B6 • F: […] • R: […] • Human CYP3A4 • F: […] • R: […]

[6] = system: Sprague-Dawley rat plasma proteins; assay: Protein binding in Sprague-Dawley rat plasma (ultracentrifugation); conditions: Sprague-Dawley rat plasma (K2EDTA), 2 μM
[7] = as above; conditions: Sprague-Dawley, rat, plasma (K2EDTA), pH 7.4
[8] = Metabolic stability in cryopreserved cynomolgus monkey hepatocytes; assay type: in vitro ADME; conditions: Cynomolgus monkey hepatocytes 0.5 million cells/mL
[9] = target: CYP2C9 (Homo sapiens, UniProt P11712); conditions: microsomes
[10] = Stability in simulated intestinal fluid (SIF); assay type: in vitro ADME
Method: When developing any potentially oral-route pharmaceutical agent, the denaturing and pepsin-rich environment of the stomach must be considered. The stability of HM-10/10 was tested in simulated gastric fluid (SGF) and simulated intestinal fluid (SIF) over 120 min. […] Samples were tested at 2 μM.
For the HM-10/10 stability assay in simulated gastric and intestinal fluids, propantheline was used to confirm retention time and carbutamide was used as the internal standard for calculations.

[11] = Metabolic stability in cryopreserved CD-1 mouse hepatocytes; assay type: in vitro ADME; conditions: CD-1 mouse hepatocytes 0.5 million cells/mL; for CLint scaled: mouse, hepatocytes, 2 μM
[12] = cryopreserved hepatocytes, read-out: % Remaining at 30 min

CYP2C9, sequence (P11712 whole entry): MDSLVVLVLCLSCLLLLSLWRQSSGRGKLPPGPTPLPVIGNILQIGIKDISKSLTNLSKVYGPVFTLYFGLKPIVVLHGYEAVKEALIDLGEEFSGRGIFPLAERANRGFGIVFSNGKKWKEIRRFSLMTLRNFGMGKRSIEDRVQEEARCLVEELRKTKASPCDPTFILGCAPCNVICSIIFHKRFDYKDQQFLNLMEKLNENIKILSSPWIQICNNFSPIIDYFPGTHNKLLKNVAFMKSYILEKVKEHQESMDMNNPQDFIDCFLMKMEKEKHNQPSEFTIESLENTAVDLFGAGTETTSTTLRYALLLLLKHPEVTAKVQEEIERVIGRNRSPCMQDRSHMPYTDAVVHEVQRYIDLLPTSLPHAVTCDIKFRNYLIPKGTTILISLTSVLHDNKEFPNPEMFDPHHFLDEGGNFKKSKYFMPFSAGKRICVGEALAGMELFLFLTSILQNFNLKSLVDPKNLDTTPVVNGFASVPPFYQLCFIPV

## LRKLRKRLLRLVGRQLEEFL [HM-10/10, LRKLRKRLLRLVGRQLEEFL]
[1]; 2 µM
  Fold Increase (Enzyme Activity) Lot HH1086: 2.06 fold
  Fold Increase (Enzyme Activity) Lot HH1142: 1.59 fold
  Fold Increase (Enzyme Activity) Lot HH1144: 1.35 fold
  Fold Increase (Enzyme Activity) Mean: 1.67 fold
[1]; 10 µM
  Fold Increase (Enzyme Activity) Lot HH1086: 2.20 fold
  Fold Increase (Enzyme Activity) Lot HH1142: 2.12 fold
  Fold Increase (Enzyme Activity) Lot HH1144: 1.83 fold
  Fold Increase (Enzyme Activity) Mean: 2.05 fold
[1]; 25 µM
  Fold Increase (Enzyme Activity) Lot HH1086: 2.07 fold
  Fold Increase (Enzyme Activity) Lot HH1142: 2.19 fold
  Fold Increase (Enzyme Activity) Lot HH1144: 2.15 fold
  Fold Increase (Enzyme Activity) Mean: 2.14 fold
[2]
  half-life at 2 µM: 164 min
  remaining at 2 h, 2 µM: 64.5%
[3]; Acidic (pH 1.3)
  half-life at 2 µM: > 120 min
  remaining at 1 h, 2 µM: 156%
[3]; Physiological pH (pH 7.4)
  half-life at 2 µM: 433 min
  remaining at 1 h, 2 µM: 81.4%
[3]; Slightly Acidic (pH 5.5)
  half-life at 2 µM: > 120 min
  remaining at 1 h, 2 µM: 136%
[4]
  half-life at 2 µM: 5.68 min
  remaining at 2 h, 2 µM: 23.9%
[5]; 2 µM
  Fold Increase (mRNA Expression) Lot HH1086: 1.69 fold
  Fold Increase (mRNA Expression) Lot HH1142: 2.24 fold
  Fold Increase (mRNA Expression) Lot HH1144: 1.81 fold
  Fold Increase (mRNA Expression) Mean of 3 Lots: 1.91 fold
[5]; 10 µM
  Comments (mRNA induction): Induction Observed
  Fold Increase (mRNA Expression) Lot HH1086: 2.75 fold
  Fold Increase (mRNA Expression) Lot HH1142: 3.24 fold
  Fold Increase (mRNA Expression) Lot HH1144: 1.75 fold
  Fold Increase (mRNA Expression) Mean of 3 Lots: 2.58 fold
[5]; 25 µM
  Comments (mRNA induction): Induction Observed
  Fold Increase (mRNA Expression) Lot HH1086: 2.74 fold
  Fold Increase (mRNA Expression) Lot HH1142: 3.01 fold
  Fold Increase (mRNA Expression) Lot HH1144: 1.13 fold
  Fold Increase (mRNA Expression) Mean of 3 Lots: 2.29 fold
[6]; 37 °C
  % Stability in Matrix (2.5 h): 36.6%
[6]; 2.5 h at 37 °C
  % Protein Bound Mean ± SD: 32.8 ± 9.4%
  % Protein Free Mean ± SD: 67.2 ± 9.4%
[7]
  fraction unbound at 2.5 h, 2 µM: 0.672 ± 0.094
[8]; 2 μM
  CLint scaled: 465 mL/min/kg
[8]; cryopreserved hepatocytes
  half-life at 2 µM: 12.1 min
[8]; [12]
  remaining at 0.5 h, 2 µM: 18.5%
[9]
  % Inhibition at 50 µM No PI + NADPH: 8.6%
  % Inhibition at 50 µM No PI − NADPH: 0.4%
  % Inhibition at 50 µM PI + NADPH: 1.7%
  % Inhibition at 50 µM PI − NADPH: 0.5%
[10]; SIF, 2 μM, 20 min
  Compound detected after 20 min under SIF conditions: no HM-10/10 could be detected
[10]; simulated intestinal fluid (SIF), SIF pH 5.5
  half-life at 2 µM: 2.72 min
[11]; cryopreserved hepatocytes
  half-life at 2 µM: < 15 min
[11]; [12]
  remaining at 0.5 h, 2 µM: 0.7%
[11]; read-out: CLint (L/hr/kg)
  CLint scaled: > 65.5 L/h/kg
[11]; read-out: CLint (mL/min/kg)
  CLint scaled: > 65.4 L/h/kg

Reference: article PMC10298982, “Stability Characterization of the Novel Anti-Cancer HM-10/10 HDL-Mimetic Peptide” (International Journal of Molecular Sciences, 2023)
